Reference: patent US12036241B2, “Compositions and methods for immune cell modulation in adoptive immunotherapies” (Fate Therapeutics, Inc., priority 2017, dated 2024)
“Also recorded” adds a separate entry of the source.

How the values were obtained:
[1] = test system: irradiated K562 cells expressing CD19 and mKate2; assay: Target cell killing by compound-treated CAR-T cells (IncuCyte); assay type: cell-based, human; conditions: earlier time points, 24 to 65 hours; FIG. 4A
Description: An in vitro serial killing/re-stimulation assay, where the T cells treated by each compound were evaluated for various functions, including expansion and ability to kill tumor cells expressing the target antigen in vitro over multiple rounds of exposure to and withdrawal from antigen, was used as a model system. Such assays were carried out on cells treated with or without compounds, to assess the impact of individual compounds on cell function after repeated encounter with antigen, and cell expansion or persistence in such contexts.
An in vitro serial killing/re-stimulation assay, where CAR-T cells are tested for the ability to “clear” tumor cells in vitro over multiple rounds, can be used as a model to assess CAR-T expansion in the presence of tumor cells that express the antigen recognized by the CAR.
CD8 T cells were transduced with CARs and the cells were then cryopreserved. After thawing, the CAR-T cells were co-cultured with irradiated K562 tumor cells that express transgenic mKate2, a far-red fluorescent protein, and CD19, the antigen recognized by the CAR. […]
From this, the Area Under the Curve (AUC) for CAR-T cells treated with each compound can be calculated. […] To determine the effect of compound treatment on the killing ability of CAR-T cells, the AUC relative to target cells alone was determined.

CD8+ T cells = assay: Cytokine production (IFNγ, IL-2, TNFα) after PMA/ionomycin, intracellular staining; assay type: cell-based, human; conditions: PMA/ionomycin 4 h; for increase of IFNγ+ only subpopulation / increase of IL-2 only subpopulation: FIG. 3D
Description: The ability of T cells to respond to a variety of stimuli can be important to their function. The capacity of T cells to produce multiple cytokines in response to non-specific stimulation is a measure of their ‘multifunctionality’. To assess whether compounds affect this ‘multifunctional’ response, the ability of modulated T cells to produce interferon-γ (IFNγ), IL-2 and/or TNFα post-stimulation was determined. After CD8^+ T cell treatment with each of the selected compounds, cells were stimulated with a mixture of PMA/ionomycin for four hours. Following stimulation, cytokine production was measured using intracellular cytokine staining with antibodies recognizing these cytokines conjugated to different fluorophores. Fluorescence was measured using flow cytometry. Cell were defined as multifunctional if they produced two or more cytokines. The proportion of T cell subsets that produce specific single, double or triple cytokines was examined and compared to cells without modulation using a selected compound.
The ability of T cells to respond to a variety of stimuli is important for their function. The capacity of T cells to produce multiple cytokines in response to non-specific stimulation is a measure of their “multifunctionality”. To assess whether selected compounds affect this “multifunctional” response in view of their phenotype skewing effect on the treated cells, the ability of treated cells to produce interferon-γ (IFNγ), IL-2 and TNFα post-stimulation was determined. After treatment of CD8+ T cells with a compound from Table 1, cells were stimulated with a mixture of PMA/ionomycin for four hours. Following stimulation, cytokine production was measured by intracellular cytokine staining with fluorescence-emitting antibodies recognizing these cytokines conjugated to different fluorophores. Fluorescence was measured using flow cytometry. Cells were defined as multifunctional if they produced at least two of the three cytokines.

Nalm-6 = assay: Survival in Nalm6/NSG tumor model, suboptimal CAR-T dose; assay type: in vivo, NSG mice; conditions: 3×10^5 CD19 CAR-T cells; FIG. 12A; listed as PI3K inhibitor
Description: (§1) Next, an in vivo assay was conducted to further characterize CAR-T cells produced in the presence of a PI3K inhibitor or a PDK1 inhibitor for tumor clearance. NSG mice were injected with a human leukemia line, Nalm-6. Four days later, mice were treated with a suboptimal dose (3×10^5) of freshly thawed CD19 CAR-T cells generated in the presence of vehicle (“DMSO” n=8), PI3K inhibitor (n=8), or PDK1 inhibitor (n=8). Some tumor bearing mice (n=2) also received expanded T cells that were not transduced with CAR (untransduced or “UNTD”). Negative control mice (n=2, “Unmanip”) received neither tumor nor CAR T cells. […] Seven days later, a suboptimal dose (2.5×10^5) of CD19 CAR-T cells produced in the presence of DMSO, PDK1 inhibitor, or PI3K inhibitor were transferred and the survival of the tumor bearing mice was monitored.

Raji = assay: Survival in Raji/NSG tumor model, suboptimal CAR-T dose; assay type: in vivo, NSG mice; conditions: 2.5×10^5 CD19 CAR-T cells; FIG. 12B; listed as PI3K inhibitor
Description: as §1

CAR-T cells = assay: Serial restimulation of CAR-T cells produced with vehicle, PI3K inhibitor or PDK1 inhibitor; assay type: cell-based, human; conditions: after antigen stimulation and withdrawal, and with coated beads; FIG. 10 legend
Description: At the end of the manufacturing process, the cells were frozen prior to subsequent functional analysis.
The ability of CAR-T cells produced in the presence of vehicle, PI3K inhibitor, or PDK1 inhibitor to expand through multiple rounds of antigen stimulation was measured in a serial restimulation assay, wherein cryopreserved CAR-T cells were thawed and co-cultured in the presence of antigen-bearing, irradiated target cells. Every 3 to 4 days the CAR-T and target cell ratios were readjusted to approximately 1:1. […] As an alternative to using antigen-bearing, irradiated target cells for CAR-T cell stimulation, cryopreserved CAR-T cells from three independent donors produced in the presence of vehicle, PI3Ki or PDKli were thawed in T cell growth media and subsequently assessed for expansion and survival, as measured by AUC (area under the curve) of the expansion over 14 days of stimulation with anti-CAR antibodies conjugated to beads.

[2] = test system: T cells from healthy donors; assay: T cell viability and expansion after compound treatment; assay type: cell-based, human; conditions: FIGS. 2A, 2B
From the text: (§2) Fresh leukopaks (AllCells, Alameda, Calif.; Key Biologics, Memphis, Tenn.) were obtained from healthy donors, from which T cells were negatively selected using, for example, the EasySep Human T Cell Enrichment Kit (Stem Cell Technologies, Vancouver, Canada). The freshly isolated T cells were aliquoted and cryopreserved. On the day the assays were initiated, T cells were thawed and washed into X-Vivo 15 with supplements including IL-2 and pen/strep. Cells were dispensed into flat-bottom 384-well plates at 5×10^5 cells/ml with anti-CD3/Anti-CD28 beads. Individual compounds were added at a final concentration over the range of 10 μM to 10 nM to each well from column 3 to column 22 of each plate. Positive and negative controls were added to additional wells. Cells were incubated for about 6 days at 37 degrees with 5% CO2.
(§3) These studies were performed with T cells from healthy donors. Six days post-initiation of culture in the presence of anti-CD3/CD28 beads and compound addition, cells were harvested and stained with a fixable viability marker and fluorophore-conjugated antibodies: CD3, CD4, CD8, CD62L, CCR7, CD27, and Tim3 (BD Biosciences, San Jose, Calif.; and BioLegend, San Diego, Calif.). Fluorescent absolute counting beads (Spherotech, Lake Forest, IL) were added just prior to acquisition. Data acquisition was performed on a BD Fortessa™ X-20 (BD Biosciences) and data were analyzed using Treestar™ software (FlowJo, Ashland, Oreg.) and Spotfire (Tibco, Boston, Mass.). The expression of surface markers including CD62L, CCR7 and CD27 was used to identify naïve, stem cell memory, or central memory T cells. After the treatment with each of the compounds, the surface marker expression profile of the treated cells was evaluated along with characterization of cell proliferation and viability. Compounds were scored on expression of these individual Tcm markers as well as CD62L/CCR7 double positive cells. Gene expression scores were also obtained based on a panel of selected 12 genes (Table 2) that are maximally differentially expressed in CD8 Tcm cells relative to Tem.
The phenotypic studies of the surface markers also included characterization of cell viability (FIG. 2A) and cell expansion (FIG. 2B). Scores for the graphs in FIGS. 2A-B were obtained using the formula: (Test value−minimum value)/(maximum value—minimum value)×10

[3] = test system: T cells from healthy donors; assay: Phenotypic profiling of T cells: CCR7, CD62L, CD27 surface markers by flow cytometry; assay type: cell-based, human; conditions: FIG. 1A; for Tcm phenotype / effect on improving Tcm percentage: relative to vehicle
From the text: as §2, §3
The selected groups of compounds were assessed for their ability to skew T cell phenotype. […] Tcm is characterized herein by expression of both CCR7 and CD62L. The expression of either CD62L or CCR7 on T cells, as indicative of the desired T cell subsets, indicates a favorable functional characteristic for CAR-T cell therapy, and potentially other adoptive T cell therapies. The phenotypic studies use flow cytometry to measure the expression levels of these key surface proteins. Compounds were scored on expression of these individual Tcm markers as well as CD62L/CCR7 double positive cells (FIG. 1A). The scores in FIG. 1A were generated using the values obtained from four donors and the formula: Score=Normalized StDev over Vehicle×Significance (−log 10(p-value))+1 Scores for other graphs in this figure used the same formula.

In the case of Cc1ccc(NC(=O)c2cccc(C(C)(C)C#N)c2)cc1Nc1ccc2ncn(C)c(=O)c2c1 [Compound 23, AZ628], the “kinetics of target cell killing compared to vehicle” value [1] was “slower than for vehicle”, the “increase of IFNγ+ only subpopulation” value (CD8+ T cells) was about 116 fold and the “increase of IL-2 only subpopulation” value (CD8+ T cells) was about 18 fold.
With Cc1sc2c(c1C)C(c1ccc(Cl)cc1)=N[C@@H](CC(=O)Nc1ccc(O)cc1)c1nnc(C)n1-2 [Compound 1, OTX015] the “increase of total multifunctional subpopulation (at least 2 cytokines)” value (CD8+ T cells; CD8+ T cells, vs vehicle) was about 16 fold, the “increase of cells producing all three cytokines” value (CD8+ T cells; IFNγ, IL-2, TNFα) was about 13 fold and the “increase of IFNγ+ only subpopulation” value (CD8+ T cells) was “about 33 fold”.
For Oc1cccc(-c2nc(N3CCOCC3)c3oc4ncccc4c3n2)c1 [PI103], the “survival of tumor bearing mice compared to DMSO generated CAR-T cells” value (Nalm-6) was “prolonged survival; also recorded: improves survival”, the “survival of tumor bearing mice compared to DMSO treated CAR-T cells” value (Raji) was “substantially improved; also recorded: improves survival” and the CAR-T cell expansion (CAR-T cells) was “improves CAR-T cell expansion”.
With C[C@@H]1CCN(C(=O)CC#N)C[C@@H]1N(C)c1ncnc2[nH]ccc12 [Compound 18, Tofacitinib] the “increase of IL-2 only subpopulation” value (CD8+ T cells) was about 4 fold.
With CC(=O)OCC(=O)[C@@]1(O)[C@H](C)C[C@H]2[C@@H]3CCC4=CC(=O)C=C[C@]4(C)[C@@]3(F)[C@@H](O)C[C@@]21C [Compound 11, Dexamethasone Acetate] the “cell viability and/or expansion relative to vehicle treatment” value [2] was “enhance cell viability and/or expansion” and the “Tcm phenotype / effect on improving Tcm percentage” value [3] was “minimal effect”.
For CC1(C)O[C@@H]2C[C@H]3[C@@H]4C[C@H](F)C5=CC(=O)C=C[C@]5(C)[C@H]4[C@@H](O)C[C@]3(C)[C@]2(C(=O)CO)O1 [Compound 10, Flunisolide], the “cell viability and/or expansion relative to vehicle treatment” value [2] was “enhance cell viability and/or expansion” and the “Tcm phenotype / effect on improving Tcm percentage” value [3] was “minimal effect”.
In the case of CC(C)(C)c1nc(-c2cccc(NS(=O)(=O)c3c(F)cccc3F)c2F)c(-c2ccnc(N)n2)s1 [Compound 24, Dabrafenib], the “increase of the percentage of CCR7, CD62L double positive cells (Tcm) relative to vehicle” value ([3]; T cells, about 6 days with anti-CD3/CD28 beads, vs DMSO) was “about 10 fold”.
Cc1ccc(-c2ncc(Cl)cc2-c2ccc(S(C)(=O)=O)cc2)cn1 [Compound 7, Etoricoxib] was tested, and the “cell viability and/or expansion relative to vehicle treatment” value [2] was “enhance cell viability and/or expansion” and the “Tcm phenotype / effect on improving Tcm percentage” value [3] was “minimal effect”.
For C1=C/COCc2cc(ccc2OCCN2CCCC2)Nc2nccc(n2)-c2cccc(c2)COC/1 [Compound 17, Pacritinib], the “increase of IL-2 only subpopulation” value (CD8+ T cells) was “about 11 fold”.
In the case of O=C1NCCN1CCN1CCC(c2cn(-c3ccc(F)cc3)c3ccc(Cl)cc23)CC1 [Compound 8, Sertindole], the “cell viability and/or expansion relative to vehicle treatment” value [2] was “enhance cell viability and/or expansion” and the “Tcm phenotype / effect on improving Tcm percentage” value [3] was “minimal effect”.
CC(=O)OCC(=O)[C@@]12OC3(CCCC3)O[C@@H]1C[C@H]1[C@@H]3CCC4=CC(=O)C=C[C@]4(C)[C@@]3(F)[C@@H](O)C[C@@]12C [Compound 12, Amcinonide] was tested, and the “cell viability and/or expansion relative to vehicle treatment” value [2] was “enhance cell viability and/or expansion” and the “Tcm phenotype / effect on improving Tcm percentage” value [3] was “minimal effect”.
